Laboratory results as given in US9701680B2, “Pyrimidine and pyridine compounds and their usage” (HUTCHISON MEDIPHARMA LIMITED, priority 2013, dated 2017).
Read-outs that look alike come from different tables or passages of the source.

Assays:
Recombinant human FGFR1 = Recombinant human FGFR1 (Homo sapiens, UniProt P11362); experiment: Transcreener Kinase Assay of FGFR1; assay type: biochemical
Summary of the method: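 Recombinant human FGFR1 was reacted with Poly E4Y substrate and ATP for 45 min at 28 °C, with compounds at 1 to 0.0005 µM in 1% DMSO final. Inhibition is relative to the DMSO control, with IC50 from a curve fit.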

KG-1 = experiment: Cellular Proliferation Assay (Cell Counting Kit-8), KG-1; assay type: cell-based; settings: Homo sapiens; KG-1 cells, 72 hours; read-out: KG1 IC50
Summary of the method: (§1)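 Seeding per well: KG-1 30000, SNU-16 5000, RT-112 1000 cells. After 24 h an 8-point series (working dilutions 10 to 0.004 μM in 5% DMSO) was added for 72 h at 37 °C, 5% CO2. CCK-8 OD450 after 1 h, corrected for media background and normalised to untreated cells, gave IC50.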

RT-112 = experiment: Cellular Proliferation Assay (Cell Counting Kit-8), RT-112; assay type: cell-based; settings: Homo sapiens; RT-112 cells, 72 hours
Summary of the method: as §1

Recombinant human FGFR2 = Recombinant human FGFR2 (Homo sapiens, UniProt P21802); experiment: Transcreener Kinase Assay of FGFR2; assay type: biochemical
FGFR3 kinase = FGFR3 kinase (Homo sapiens, UniProt P22607); experiment: Z-Lyte Kinase Assay of FGFR3; assay type: biochemical
Summary of the method: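 Z-LYTE FRET assay, kinase 0.7 μg/ml with Tyr 4 peptide 4 μM (P/K solution), ATP diluted to 300 uM in 1.33× buffer; compound final 1 to 0.00046 μM, 2% DMSO.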

SNU-16 = experiment: Cellular Proliferation Assay (Cell Counting Kit-8), SNU-16; assay type: cell-based; settings: Homo sapiens; SNU-16 cells, 72 hours
Summary of the method: as §1

Recombinant human FGFR2, sequence (P21802 22-821): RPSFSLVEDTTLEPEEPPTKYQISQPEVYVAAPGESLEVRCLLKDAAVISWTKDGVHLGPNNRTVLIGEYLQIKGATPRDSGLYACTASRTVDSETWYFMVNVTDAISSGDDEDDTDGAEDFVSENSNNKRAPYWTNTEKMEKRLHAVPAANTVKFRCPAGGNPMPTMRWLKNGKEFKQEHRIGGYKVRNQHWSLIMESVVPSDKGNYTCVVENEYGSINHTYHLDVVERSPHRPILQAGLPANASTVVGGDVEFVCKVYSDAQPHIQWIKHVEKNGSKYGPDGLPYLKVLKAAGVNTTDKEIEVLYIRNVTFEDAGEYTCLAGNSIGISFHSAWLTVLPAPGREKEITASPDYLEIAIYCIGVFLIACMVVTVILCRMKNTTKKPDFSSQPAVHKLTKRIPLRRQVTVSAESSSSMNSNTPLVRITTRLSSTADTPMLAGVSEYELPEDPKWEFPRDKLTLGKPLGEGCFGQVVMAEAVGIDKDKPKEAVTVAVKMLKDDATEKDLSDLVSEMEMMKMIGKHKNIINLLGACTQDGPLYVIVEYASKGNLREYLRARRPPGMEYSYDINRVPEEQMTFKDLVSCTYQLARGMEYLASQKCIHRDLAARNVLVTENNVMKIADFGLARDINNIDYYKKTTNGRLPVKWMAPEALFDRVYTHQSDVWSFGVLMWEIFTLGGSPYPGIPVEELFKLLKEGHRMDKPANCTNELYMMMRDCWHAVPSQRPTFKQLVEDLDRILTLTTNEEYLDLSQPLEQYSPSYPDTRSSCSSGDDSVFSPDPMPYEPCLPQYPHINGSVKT
Recombinant human FGFR1, sequence (P11362 22-822): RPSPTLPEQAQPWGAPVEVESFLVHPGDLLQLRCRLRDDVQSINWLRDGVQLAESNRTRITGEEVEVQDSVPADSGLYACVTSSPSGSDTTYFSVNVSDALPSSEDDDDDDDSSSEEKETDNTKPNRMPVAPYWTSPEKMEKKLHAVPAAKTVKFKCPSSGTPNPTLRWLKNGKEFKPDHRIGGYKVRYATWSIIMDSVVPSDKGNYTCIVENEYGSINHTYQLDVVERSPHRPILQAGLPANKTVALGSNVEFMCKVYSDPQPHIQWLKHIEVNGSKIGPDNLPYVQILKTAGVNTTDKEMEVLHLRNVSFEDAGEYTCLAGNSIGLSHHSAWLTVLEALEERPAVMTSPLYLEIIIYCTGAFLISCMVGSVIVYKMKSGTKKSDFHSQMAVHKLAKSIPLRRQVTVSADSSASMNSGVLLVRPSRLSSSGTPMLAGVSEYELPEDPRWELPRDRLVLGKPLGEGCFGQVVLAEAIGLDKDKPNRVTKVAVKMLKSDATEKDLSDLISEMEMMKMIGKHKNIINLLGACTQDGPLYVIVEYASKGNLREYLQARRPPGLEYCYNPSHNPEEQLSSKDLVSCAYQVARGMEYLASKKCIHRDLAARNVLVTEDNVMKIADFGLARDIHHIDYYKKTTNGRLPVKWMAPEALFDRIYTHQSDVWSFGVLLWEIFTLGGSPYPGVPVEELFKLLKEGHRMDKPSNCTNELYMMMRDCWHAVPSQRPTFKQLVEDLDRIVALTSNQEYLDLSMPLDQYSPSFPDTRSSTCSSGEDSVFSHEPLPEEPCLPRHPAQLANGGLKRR
FGFR3 kinase, sequence (P22607 23-806): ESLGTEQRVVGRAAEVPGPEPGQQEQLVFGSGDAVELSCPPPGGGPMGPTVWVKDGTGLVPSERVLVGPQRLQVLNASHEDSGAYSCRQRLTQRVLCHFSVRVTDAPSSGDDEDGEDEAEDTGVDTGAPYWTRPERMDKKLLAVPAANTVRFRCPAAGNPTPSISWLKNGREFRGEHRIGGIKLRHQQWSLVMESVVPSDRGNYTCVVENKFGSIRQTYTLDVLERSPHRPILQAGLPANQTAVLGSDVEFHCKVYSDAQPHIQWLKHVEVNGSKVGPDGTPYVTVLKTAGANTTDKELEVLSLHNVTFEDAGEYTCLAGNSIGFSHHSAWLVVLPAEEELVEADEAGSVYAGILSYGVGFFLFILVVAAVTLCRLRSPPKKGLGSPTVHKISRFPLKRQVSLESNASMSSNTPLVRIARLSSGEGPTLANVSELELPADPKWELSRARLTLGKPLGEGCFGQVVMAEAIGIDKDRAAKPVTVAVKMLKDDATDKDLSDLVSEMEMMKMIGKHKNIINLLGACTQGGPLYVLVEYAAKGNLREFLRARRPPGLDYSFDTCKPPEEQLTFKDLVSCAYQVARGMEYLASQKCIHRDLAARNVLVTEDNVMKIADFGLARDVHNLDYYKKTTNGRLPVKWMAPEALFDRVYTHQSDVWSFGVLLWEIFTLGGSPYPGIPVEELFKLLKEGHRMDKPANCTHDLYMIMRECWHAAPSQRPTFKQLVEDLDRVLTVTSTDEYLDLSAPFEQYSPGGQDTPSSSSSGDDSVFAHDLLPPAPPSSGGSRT

Compound | IC50 (Recombinant human FGFR1; FP) [nM] | IC50 (Recombinant human FGFR2; FP) [nM] | IC50 (FGFR3 kinase; Z-lyte) [nM] | IC50 (SNU-16) [nM] | IC50 (Recombinant human FGFR1; read-out: FGFR1 (FP) IC50) [nM] | IC50 (Recombinant human FGFR2; read-out: FGFR2 (FP) IC50) [nM] | IC50 (FGFR3 kinase) [nM] | IC50 (KG-1) [nM] | IC50 (RT-112) [nM]
CNC(=O)c1cc(COc2cnc(Nc3ccc(-n4cnnc4)cc3)nc2)c(F)c(OC)c1 [Compound 223] | – | – | – | 51 | 29 | 18 | 20 | 102 | 729
CNC(=O)c1cc(COc2cnc(Nc3ccnc(N4C[C@@H](C)N[C@@H](C)C4)c3)nc2)c(F)c(OC)c1 [Compound 259] | – | – | – | 39 | 24 | 14 | 13 | 220 | 141
CNC(=O)c1cc(COc2cnc(Nc3ccc(=O)n(C4CCCC4)c3)nc2)c(F)c(OC)c1 [Compound 237] | – | – | – | 42 | 66 | 27 | 29 | 79 | 134
CNC(=O)c1cc(OC)c(F)c(COc2cnc(Nc3ccc(N4C[C@@H](C)N[C@@H](C)C4)nc3)nc2)c1F [Compound 278] | 23 | 14 | 20 | 27 | – | – | – | 34 | 65

Molecules with a lower IC50 (SNU-16), results first:

IC50 (Recombinant human FGFR1; FP) [nM] | IC50 (Recombinant human FGFR2; FP) [nM] | IC50 (FGFR3 kinase; Z-lyte) [nM] | IC50 (SNU-16) [nM] | IC50 (Recombinant human FGFR1; read-out: FGFR1 (FP) IC50) [nM] | IC50 (Recombinant human FGFR2; read-out: FGFR2 (FP) IC50) [nM] | IC50 (FGFR3 kinase) [nM] | Compound | IC50 (KG-1) [nM] | IC50 (RT-112) [nM]
19 | 17 | 21 | 1 | – | – | – | CCN1CCN(c2ccc(Nc3ncc(C#Cc4cc(C(=O)NC)cc(OC)c4F)cn3)cc2OC)CC1 [Compound 307] | 5 | 5
– | – | – | 16 | 12 | 8 | 11 | CNC(=O)c1cc(CCc2cnc(Nc3ccc(N4C[C@@H](C)N(C)[C@@H](C)C4)cc3)nc2)c(F)c(OC)c1 [Compound 171] | 8 | 43
